Measurements reported in PubChem BioAssay (NCI).
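Grown in 96-well plates, cells were treated for 48 hours with each compound at five concentrations. Insufficient inhibition: endpoint recorded as highest concentration tested. TGI: concentration producing complete growth inhibition.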

Experiments:
Assay in all cases: NCI tumour cell line growth inhibition, 48 h
[1] = test system: DMS 273 small cell lung
[2] = test system: SF-539 CNS
[3] = test system: COLO 205 colon
[4] = test system: SNB-78 CNS
[5] = test system: OVCAR-3 ovarian
[6] = test system: NCI-H460 lung
[7] = test system: SNB-75 CNS
[8] = test system: SF-268 CNS
[9] = test system: MOLT-4 leukemia
[10] = test system: NCI-H522 lung
[11] = test system: DLD-1 colon
[12] = test system: ACHN renal
[13] = test system: SK-MEL-5 melanoma
[14] = test system: HOP-62 NSCLC
[15] = test system: UO-31 renal
[16] = test system: SN12C renal
[17] = test system: IGROV1 ovarian
[18] = test system: SR leukemia
[19] = test system: CAKI-1 renal
[20] = test system: LOX IMVI melanoma
[21] = test system: KM12 colon
[22] = test system: K-562 leukemia
[23] = test system: NCI-H23 lung
[24] = test system: HL-60(TB) leukemia
[25] = test system: A549 NSCLC
[26] = test system: SW-620 colon
[27] = test system: RXF-631 renal
[28] = test system: SNB-19 CNS
[29] = test system: OVCAR-8 ovarian
[30] = test system: UACC-62 melanoma
[31] = test system: NCI-H226 lung
[32] = test system: SK-MEL-28 melanoma
[33] = test system: M14 melanoma
[34] = test system: UACC-257 melanoma
[35] = test system: CCRF-CEM leukemia
[36] = test system: A498 renal
[37] = test system: LXFL 529 NSCLC
[38] = test system: TK-10 renal
[39] = test system: HCT-116 colon
[40] = test system: RPMI-8226 leukemia
[41] = test system: 786-0 renal
[42] = test system: U251 CNS
[43] = test system: HT29 colon
[44] = test system: SK-OV-3 ovarian
[45] = test system: SF-295 CNS
[46] = test system: DMS 114 small cell lung
[47] = test system: MALME-3M melanoma
[48] = test system: HOP-92 NSCLC
[49] = test system: HOP-18 NSCLC
[50] = test system: M19-MEL melanoma
[51] = test system: XF 498 CNS
[52] = test system: KM20L2 colon
[53] = test system: OVCAR-4 ovarian
[54] = test system: EKVX NSCLC
[55] = test system: RXF 393 renal
[56] = test system: HCT-15 colon
[57] = test system: OVCAR-5 ovarian
[58] = test system: HCC-2998 colon
[59] = test system: SK-MEL-2 melanoma
[60] = test system: SN12K1 renal
[61] = test system: P388/ADR leukemia
[62] = test system: NCI/ADR-RES ovarian
[63] = test system: P388 leukemia
[64] = test system: MCF7 breast

## COc1ccc2c(c1)NC1(O)c3ccccc3C(=O)C21O (stereo unspecified)
[1]
  TGI: > 100 µM
[2]
  TGI: > 100 µM
[3]
  TGI: > 100 µM
[4]
  TGI: > 100 µM
[5]
  TGI: > 100 µM
[6]
  TGI: > 100 µM
[7]
  TGI: > 100 µM
[8]
  TGI: > 100 µM
[9]
  TGI: > 100 µM
[10]
  TGI: > 100 µM
[11]
  TGI: > 100 µM
[12]
  TGI: > 100 µM
[13]
  TGI: > 100 µM
[14]
  TGI: > 100 µM
[15]
  TGI: > 100 µM
[16]
  TGI: > 100 µM
[17]
  TGI: > 100 µM
[18]
  TGI: > 100 µM
[19]
  TGI: > 100 µM
[20]
  TGI: > 100 µM
[21]
  TGI: > 100 µM
[22]
  TGI: > 100 µM
[23]
  TGI: > 100 µM
[24]
  TGI: > 100 µM
[25]
  TGI: > 100 µM
[26]
  TGI: > 100 µM
[27]
  TGI: > 100 µM
[28]
  TGI: > 100 µM
[29]
  TGI: > 100 µM
[30]
  TGI: > 100 µM
[31]
  TGI: > 100 µM
[32]
  TGI: > 100 µM
[33]
  TGI: > 100 µM
[34]
  TGI: > 100 µM
[35]
  TGI: > 100 µM
[36]
  TGI: > 100 µM
[37]
  TGI: > 100 µM
[38]
  TGI: > 100 µM
[39]
  TGI: > 100 µM
[40]
  TGI: > 100 µM
[41]
  TGI: > 100 µM
[42]
  TGI: > 100 µM
[43]
  TGI: > 100 µM
[44]
  TGI: > 100 µM
[45]
  TGI: > 100 µM
[46]
  TGI: > 100 µM
[47]
  TGI: > 100 µM
[48]
  TGI: > 100 µM
[49]
  TGI: > 100 µM
[50]
  TGI: > 100 µM
[51]
  TGI: > 100 µM
[52]
  TGI: > 100 µM

## NCCNC(=O)c1cccc2cc3ccccc3nc12
[1]
  TGI: > 100 µM
[53]
  TGI: 15.2 µM
[2]
  TGI: 16.9 µM
[4]
  TGI: 37 µM
[5]
  TGI: 15.4 µM
[7]
  TGI: 27.7 µM
[8]
  TGI: 3.73 µM
[9]
  TGI: 1.94 µM
[10]
  TGI: > 100 µM
[11]
  TGI: 18.6 µM
[13]
  TGI: > 23.2 µM
[14]
  TGI: 5.02 µM
[15]
  TGI: > 28.5 µM
[16]
  TGI: 20.8 µM
[17]
  TGI: > 28.6 µM
[18]
  TGI: 53.8 µM
[19]
  TGI: > 23.4 µM
[20]
  TGI: 2.76 µM
[54]
  TGI: 17.5 µM
[21]
  TGI: 20.4 µM
[22]
  TGI: 6.16 µM
[23]
  TGI: 10.6 µM
[55]
  TGI: 10.2 µM
[25]
  TGI: > 100 µM
[26]
  TGI: > 34.1 µM
[56]
  TGI: 15 µM
[27]
  TGI: 16.7 µM
[28]
  TGI: 19.1 µM
[29]
  TGI: > 22.2 µM
[30]
  TGI: 8.34 µM
[31]
  TGI: 3.61 µM
[32]
  TGI: 9.71 µM
[33]
  TGI: 11 µM
[34]
  TGI: 8.81 µM
[36]
  TGI: 5.88 µM
[37]
  TGI: > 36.6 µM
[57]
  TGI: 14.6 µM
[38]
  TGI: 21.2 µM
[39]
  TGI: 8.06 µM
[40]
  TGI: > 100 µM
[41]
  TGI: > 68.4 µM
[42]
  TGI: 9.04 µM
[43]
  TGI: 6.5 µM
[44]
  TGI: > 39 µM
[45]
  TGI: > 20.9 µM
[46]
  TGI: 6.66 µM
[47]
  TGI: 3.29 µM
[58]
  TGI: 21.2 µM
[48]
  TGI: > 100 µM
[49]
  TGI: > 40.9 µM
[50]
  TGI: 5.34 µM
[59]
  TGI: 7.81 µM
[51]
  TGI: 6.04 µM
[52]
  TGI: 12.5 µM

## COC(=O)[C@]1(c2ccc(N(C)C)cc2OC)C[C@@H]2CCCN(CCc3c1[nH]c1ccccc31)C2
[1]
  TGI: 45.1 µM
[53]
  TGI: 28.2 µM
[2]
  TGI: 36.8 µM
[3]
  TGI: 27.3 µM
[4]
  TGI: > 91.1 µM
[5]
  TGI: 36.4 µM
[6]
  TGI: 33.7 µM
[7]
  TGI: 22.3 µM
[8]
  TGI: 71.2 µM
[9]
  TGI: > 91.4 µM
[10]
  TGI: 21.8 µM
[11]
  TGI: > 64.1 µM
[13]
  TGI: 31.4 µM
[14]
  TGI: > 84.9 µM
[15]
  TGI: 33.2 µM
[16]
  TGI: 41 µM
[17]
  TGI: 48 µM
[19]
  TGI: > 100 µM
[20]
  TGI: > 62.3 µM
[54]
  TGI: 52 µM
[21]
  TGI: > 55.9 µM
[22]
  TGI: 37.7 µM
[23]
  TGI: > 51.1 µM
[55]
  TGI: 37.9 µM
[24]
  TGI: 27.3 µM
[25]
  TGI: > 65.5 µM
[26]
  TGI: > 100 µM
[56]
  TGI: 46.6 µM
[28]
  TGI: > 100 µM
[60]
  TGI: 34.6 µM
[61]
  TGI: 47.1 µM
[29]
  TGI: 57.9 µM
[30]
  TGI: 32.4 µM
[31]
  TGI: 37.6 µM
[32]
  TGI: 35.1 µM
[62]
  TGI: 35.8 µM
[34]
  TGI: 39.6 µM
[35]
  TGI: > 84.3 µM
[36]
  TGI: 47 µM
[63]
  TGI: 36 µM
[57]
  TGI: > 100 µM
[39]
  TGI: 55.5 µM
[40]
  TGI: 63.2 µM
[42]
  TGI: 36 µM
[43]
  TGI: 32.8 µM
[64]
  TGI: 30.7 µM
[44]
  TGI: > 61.4 µM
[45]
  TGI: > 60.7 µM
[46]
  TGI: 30.9 µM
[47]
  TGI: 33.2 µM
[58]
  TGI: 29.8 µM
[48]
  TGI: 33.4 µM
[49]
  TGI: > 58.7 µM
[50]
  TGI: 32.8 µM
[59]
  TGI: 36.2 µM
[51]
  TGI: 34.1 µM
[52]
  TGI: 32.5 µM

## CC(C)(C)N/N=C(\C(=O)Nc1nc(=S)[nH][nH]1)C1C(=O)Nc2ccccc2S1=O (stereo unspecified)
[1]
  TGI: > 100 µM
[53]
  TGI: > 100 µM
[2]
  TGI: > 100 µM
[3]
  TGI: > 100 µM
[4]
  TGI: > 100 µM
[5]
  TGI: > 100 µM
[6]
  TGI: > 100 µM
[7]
  TGI: > 100 µM
[8]
  TGI: > 100 µM
[9]
  TGI: > 100 µM
[10]
  TGI: > 100 µM
[11]
  TGI: > 100 µM
[12]
  TGI: > 100 µM
[13]
  TGI: > 100 µM
[14]
  TGI: > 100 µM
[15]
  TGI: > 100 µM
[16]
  TGI: > 100 µM
[17]
  TGI: > 100 µM
[18]
  TGI: > 100 µM
[19]
  TGI: > 100 µM
[20]
  TGI: > 100 µM
[54]
  TGI: > 100 µM
[21]
  TGI: > 100 µM
[22]
  TGI: > 100 µM
[23]
  TGI: > 100 µM
[55]
  TGI: > 100 µM
[24]
  TGI: > 100 µM
[25]
  TGI: > 100 µM
[26]
  TGI: > 100 µM
[56]
  TGI: > 100 µM
[27]
  TGI: > 100 µM
[28]
  TGI: > 100 µM
[29]
  TGI: > 100 µM
[30]
  TGI: > 100 µM
[31]
  TGI: > 100 µM
[32]
  TGI: > 100 µM
[33]
  TGI: > 100 µM
[34]
  TGI: > 100 µM
[35]
  TGI: > 100 µM
[36]
  TGI: > 100 µM
[37]
  TGI: > 100 µM
[57]
  TGI: > 100 µM
[38]
  TGI: > 100 µM
[39]
  TGI: > 100 µM
[40]
  TGI: > 100 µM
[41]
  TGI: > 100 µM
[42]
  TGI: > 100 µM
[43]
  TGI: > 100 µM
[44]
  TGI: > 100 µM
[45]
  TGI: > 100 µM
[46]
  TGI: > 100 µM
[47]
  TGI: > 100 µM
[58]
  TGI: > 100 µM
[49]
  TGI: > 100 µM
[50]
  TGI: > 100 µM
[59]
  TGI: > 100 µM
[51]
  TGI: > 100 µM
[52]
  TGI: > 100 µM
